In patent publication US7935670B2, “Hepatitis C virus inhibitors” (Bristol-Myers Squibb Company, priority 2006, dated 2011):
pIC50: −log10 of the molar value.

Experiments:
[1] = molecular target: T1, HCV NS3/4A protease complex, H77 strain (Hepatitis C virus genotype 1a, UniProt P27958, C1454S/C1711G); assay: FRET peptide assay to monitor HCV NS3/4A proteolytic activity (H77 strain); type: biochemical, HCV genotype 1a
T1 construct: DNA encoding the recombinant HCV NS3/4A protease complex (amino acids 1027 to 1711) for these strains; His tag (inferred from pET21b vector and Ni-NTA purification); made in house; host or cells: Escherichia coli BL21 (DE3), pET21b
T1 sequence (P27958 1027-1711 C1454S/C1711G, one chain of several): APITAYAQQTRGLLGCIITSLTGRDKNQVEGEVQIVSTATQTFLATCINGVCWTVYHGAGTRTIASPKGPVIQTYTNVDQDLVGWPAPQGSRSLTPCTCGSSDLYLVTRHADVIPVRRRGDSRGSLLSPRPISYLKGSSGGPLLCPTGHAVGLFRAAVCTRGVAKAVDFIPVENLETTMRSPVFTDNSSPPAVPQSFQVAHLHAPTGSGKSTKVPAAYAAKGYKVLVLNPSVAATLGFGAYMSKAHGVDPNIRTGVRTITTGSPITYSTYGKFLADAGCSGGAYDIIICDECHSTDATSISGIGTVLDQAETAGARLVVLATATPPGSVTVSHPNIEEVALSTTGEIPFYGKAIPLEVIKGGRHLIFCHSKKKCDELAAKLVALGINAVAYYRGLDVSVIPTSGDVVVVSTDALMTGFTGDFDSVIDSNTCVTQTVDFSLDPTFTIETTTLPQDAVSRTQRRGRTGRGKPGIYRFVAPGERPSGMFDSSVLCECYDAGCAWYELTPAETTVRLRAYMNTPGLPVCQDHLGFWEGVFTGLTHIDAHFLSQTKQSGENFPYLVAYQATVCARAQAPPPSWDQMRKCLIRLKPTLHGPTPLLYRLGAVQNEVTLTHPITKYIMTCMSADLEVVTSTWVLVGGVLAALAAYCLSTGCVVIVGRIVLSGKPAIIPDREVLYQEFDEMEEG
From the text: (§1) HCV NS3 protease complexes, derived from the BMS strain, H77 strain or J4L6S strain, were generated, as described below. These purified recombinant proteins were generated for use in a homogeneous assay (see below) to provide an indication of how effective compounds of the present disclosure would be in inhibiting HCV NS3 proteolytic activity.
(§2) Serum from an HCV-infected patient was obtained from Dr. T. Wright, San Francisco Hospital. An engineered full-length cDNA (compliment deoxyribonucleic acid) template of the HCV genome (BMS strain) was constructed from DNA fragments obtained by reverse transcription-PCR(RT-PCR) of serum RNA (ribonucleic acid) and using primers selected on the basis of homology between other genotype 1a strains. From the determination of the entire genome sequence, a genotype 1a was assigned to the HCV isolate according to the classification of Simmonds et al. (See P Simmonds, K A Rose, S Graham, S W Chan, F McOmish, B C Dow, E A Follett, P L Yap and H Marsden, J. Clin. Microbiol., 31(6), 1493-1503 (1993)). […]

[2] = molecular target: T2, HCV NS3/4A protease complex, J4L6S strain (Hepatitis C virus genotype 1b, UniProt O92972, C1454S/C1711G); assay: FRET peptide assay to monitor HCV NS3/4A proteolytic activity (J4L6S strain); type: biochemical, HCV genotype 1b
T2 construct: DNA encoding the recombinant HCV NS3/4A protease complex (amino acids 1027 to 1711) for these strains; His tag (inferred from pET21b vector and Ni-NTA purification); made in house; host or cells: Escherichia coli BL21 (DE3), pET21b
T2 sequence (O92972 1027-1711 C1454S/C1711G, one chain of several): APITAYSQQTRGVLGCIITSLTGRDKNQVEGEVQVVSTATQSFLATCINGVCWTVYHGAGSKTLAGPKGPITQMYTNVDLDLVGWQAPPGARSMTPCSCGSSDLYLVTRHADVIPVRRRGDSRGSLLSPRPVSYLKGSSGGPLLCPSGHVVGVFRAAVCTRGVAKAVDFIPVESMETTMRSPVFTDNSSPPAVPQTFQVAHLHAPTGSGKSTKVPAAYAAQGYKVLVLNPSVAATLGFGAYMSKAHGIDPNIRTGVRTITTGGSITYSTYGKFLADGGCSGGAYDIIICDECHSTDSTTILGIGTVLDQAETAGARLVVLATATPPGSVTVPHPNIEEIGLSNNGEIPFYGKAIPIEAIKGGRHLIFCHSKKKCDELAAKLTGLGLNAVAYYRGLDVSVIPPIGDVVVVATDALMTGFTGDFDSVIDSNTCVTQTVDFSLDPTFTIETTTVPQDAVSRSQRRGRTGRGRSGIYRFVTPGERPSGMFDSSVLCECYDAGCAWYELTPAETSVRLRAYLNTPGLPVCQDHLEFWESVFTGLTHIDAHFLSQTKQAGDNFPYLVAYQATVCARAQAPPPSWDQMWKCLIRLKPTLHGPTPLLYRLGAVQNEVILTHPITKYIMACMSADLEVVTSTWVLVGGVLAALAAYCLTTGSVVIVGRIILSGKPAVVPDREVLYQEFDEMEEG
From the text: as §1, §2

[3] = molecular target: T3, human neutrophil elastase (HNE) (Homo sapiens, UniProt P08246); assay: Specificity assay, human neutrophil elastase; type: biochemical; conditions: 2 h enzyme-inhibitor pre-incubation; read-out: HLE activity (IC50) in the specificity assay
T3 construct: purchased Sigma
T3 sequence (P08246 30-267): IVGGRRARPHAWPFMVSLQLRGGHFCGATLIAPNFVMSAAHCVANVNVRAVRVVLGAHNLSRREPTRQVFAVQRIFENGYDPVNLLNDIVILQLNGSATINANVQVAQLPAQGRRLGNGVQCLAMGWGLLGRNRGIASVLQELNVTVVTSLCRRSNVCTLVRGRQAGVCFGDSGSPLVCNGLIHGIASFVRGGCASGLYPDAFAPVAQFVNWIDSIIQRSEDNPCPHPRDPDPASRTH
Procedure: The specificities of compounds of the present disclosure were determined against a variety of serine proteases: human neutrophil elastase (HNE), porcine pancreatic elastase (PPE) and human pancreatic chymotrypsin and one cysteine protease: human liver cathepsin B. In all cases a 96-well plate format protocol using colorimetric p-nitroaniline (pNA) substrate specific for each enzyme was used as described previously (PCT Patent Application No. WO 00/09543) with some modifications to the serine protease assays. All enzymes were purchased from Sigma while the substrates were from Bachem.
Each assay included a 2 h enzyme-inhibitor pre-incubation at room temperature followed by addition of substrate and hydrolysis to ˜30% conversion as measured on a Spectramax Pro microplate reader. Compound concentrations varied from 100 to 0.4 μM depending on their potency.
50 mM Tris(hydroxymethyl)aminomethane hydrochloride (Tris-HCl) pH 8, 0.5 M Sodium Sulfate (Na2SO4), 50 mM NaCl, 0.1 mM EDTA, 3% DMSO, 0.01% Tween-20 with:
133 μM succ-AAA-pNA and 20 nM HNE or 8 nM PPE; 100 μM succ-AAPF-pNA and […] Chymotrypsin.
The percentage of inhibition was calculated using the formula: [1−((UVinh−UVblank)/(UVctl−UVblank))]×100
A non-linear curve fit was applied to the inhibition-concentration data, and the 50% effective concentration (IC50) was calculated by the use of Excel Xl-fit software.

Structure (SMILES): C=C[C@@H]1C[C@]1(NC(=O)[C@@H]1C[C@@H](OC(=O)c2ccccc2)CN1C(=O)[C@@H](NC(=O)OC(C)(C)C)C(C)(C)C)C(=O)NS(=O)(=O)C1CC1 [Compound 1]
- pIC50 [1]: 8.22
- pIC50 [2]: 8.60
- pIC50 [3]: < 3.70
